This passage reports IC50 results from patent US20240245673A1, “Papain-like protease (PLpro) inhibitors” (Pfizer Inc., priority 2022, published 2024).

Broadly, the IC50 is the midpoint of a concentration-inhibition curve.

In this experiment the target is SARS-CoV-2 Papain like protease (PLpro) (Severe acute respiratory syndrome coronavirus 2 (2019-nCoV) (SARS-CoV-2), UniProt P0DTD1). The experiment in a line: Papain Like Protease (PLpro) biochemical assay with profluorogenic substrate Z-RLRGG-AMC. Particulars: SARS-CoV-2 PLpro 6.25 nM, 25 μM Z-RLRGG-AMC substrate, 60 minute reaction; read-out: IC50.

Bounds are passed on as bounds.

In the case of `Cc1ccc(NC(=O)[C@H]2CCCCN2)cc1C(=O)NC(C)c1cc(N)nc2ccccc12` (mixture of isomers) [Example 25, (R)—N-(3-(((RS)-1-(2-aminoquinolin-4-yl)ethyl)carbamoyl)-4-methylphenyl)piperidine-2-carboxamide], the IC50 was 0.1 µM.
Turning to `Cc1ccc(NC(=O)[C@H]2CCCCN2)cc1C(=O)NC(C)c1cc(-c2ccn[nH]2)cc2ccccc12` (mixture of isomers) [Example 65, (2R)-N-(3-((1-(3-(1H-pyrazol-5-yl)naphthalen-1-yl)ethyl)carbamoyl)-4-methylphenyl)piperidine-2-carboxamide], the IC50 was determined as 0.021 µM.
In the case of `COCC(OCc1cscn1)c1ccc(C(=O)N[C@H](C)c2cc(-c3cnn(C)c3)nc3ccccc23)c(C)c1` (mixture of isomers) [Example 331, 4-(2-methoxy-1-(thiazol-4-ylmethoxy)ethyl)-2-methyl-N-((R)-1-(2-(1-methyl-1H-pyrazol-4-yl)quinolin-4-yl)ethyl)benzamide], the IC50 was < 0.001 µM.
As for `Cc1ccc(CN)cc1C(=O)N[C@H](C)c1cc(-c2cnn(C)c2)cc2ccccc12` (single isomer, unassigned) [Example 8], the IC50 was 0.025 µM.
Turning to `Cc1ccc(CN)cc1C(=O)N[C@H](C)c1cc(-c2cnn(C)c2)cc2ccccc12` (single isomer, unassigned) [Example 9], the IC50 is 3.92 µM.
In the case of `Cc1ccc(NC(=O)[C@H]2CCCCN2)cc1C(=O)N[C@H](C)c1cc(N)nc2ccccc12` (single isomer, unassigned) [Example 27, (R)—N-(3-(((R*)-1-(2-aminoquinolin-4-yl)ethyl)carbamoyl)-4-methylphenyl)piperidine-2-carboxamide], the IC50 came out at 0.057 µM.
On to `Cc1ccc(NC(=O)[C@H]2CCCCN2)cc1C(=O)N[C@H](C)c1cc(N)nc2ccccc12` (single isomer, unassigned) [Example 28, (R)—N-(3-(((R*)-1-(2-aminoquinolin-4-yl)ethyl)carbamoyl)-4-methylphenyl) piperidine-2-carboxamide], for which the IC50 is 5.45 µM.
For the compound `Cc1ccc(NC(=O)[C@H]2CCCCN2)cc1C(=O)N[C@H](C)c1cc(-n2ccnn2)nc2ccccc12` (single isomer, unassigned) [Example 29, (R)—N-(3-(((R*)-1-(2-(1H-1,2,3-triazol-1-yl)quinolin-4-yl)ethyl)carbamoyl)-4-methylphenyl)piperidine-2-carboxamide], the IC50 was 0.1 µM.
Under `Cc1ccc(NC(=O)[C@H]2CCCCN2)cc1C(=O)N[C@H](C)c1cc(-n2ccnn2)nc2ccccc12` (single isomer, unassigned) [Example 30, (R)—N-(3-(((R*)-1-(2-(1H-1,2,3-triazol-1-yl)quinolin-4-yl)ethyl)carbamoyl)-4-methylphenyl)piperidine-2-carboxamide] stands 7.73 µM; under `Cc1ccc(NC(=O)[C@H]2CCCCN2)cc1C(=O)NC(C)c1cc(-c2cn[nH]c2)cc2ccccc12` (single isomer, unassigned) [Example 52, (R)—N-(3-(((R*)-1-(3-(1H-pyrazol-4-yl)naphthalen-1-yl)ethyl)carbamoyl)-4-methylphenyl)piperidine-2-carboxamide], 0.011 µM.
Turning to `Cc1ccc(NC(=O)[C@H]2CCCCN2)cc1C(=O)NC(C)c1cc(-c2cn[nH]c2)cc2ccccc12` (single isomer, unassigned) [Example 53, (R)—N-(3-(((R*)-1-(3-(1H-pyrazol-4-yl)naphthalen-1-yl)ethyl)carbamoyl)-4-methylphenyl)piperidine-2-carboxamide], the IC50 worked out at 0.478 µM.
On to `Cc1ccc(NC(=O)[C@H]2CCCCN2)cc1C(=O)N[C@H](C)c1cc(-c2cnn(C)c2)cc2ccccc12` (single isomer, unassigned) [Example 66], for which the IC50 is 0.008 µM.
For the compound `Cc1ccc(NC(=O)[C@H]2CCCCN2)cc1C(=O)N[C@H](C)c1cc(-c2cnn(C)c2)cc2ccccc12` (single isomer, unassigned) [Example 67], the IC50 is 0.272 µM.
Under `Cc1ccc(NC(=O)[C@H]2CCCCN2)cc1C(=O)N[C@H](C)c1cc(-c2ccn[nH]2)cc2ccccc12` (single isomer, unassigned) [Example 68] stands 0.009 µM.
The same measure for `Cc1ccc(NC(=O)[C@H]2CCCCN2)cc1C(=O)N[C@H](C)c1cc(-c2ccn[nH]2)cc2ccccc12` (single isomer, unassigned) [Example 69]: 0.908 µM; for `Cc1ccc(N2C[C@H]3C[C@@H]2CN3C)cc1C(=O)N[C@H](C)c1cc(-c2cnn(C)c2)nc2ccccc12` (single isomer, unassigned) [Example 280, 2-methyl-N—((R)-1-(2-(1-methyl-1H-pyrazol-4-yl)quinolin-4-yl)ethyl)-5-((1R*,4R*)-5-methyl-2,5-diazabicyclo[2.2.1]heptan-2-yl)benzamide]: 0.017 µM.
Regarding `Cc1ccc(N2C[C@H]3C[C@@H]2CN3C)cc1C(=O)N[C@H](C)c1cc(-c2cnn(C)c2)nc2ccccc12` (single isomer, unassigned) [Example 281, 2-methyl-N—((R)-1-(2-(1-methyl-1H-pyrazol-4-yl)quinolin-4-yl)ethyl)-5-((1R*,4R*)-5-methyl-2,5-diazabicyclo[2.2.1]heptan-2-yl)benzamide], the IC50 was determined as 0.003 µM.
As for `COCC(OCc1cscn1)c1ccc(C(=O)NC2(c3cc(-c4cnn(C)c4)nc4ccccc34)CC2)c(C)c1` (single isomer, unassigned) [Example 324], the IC50 was < 0.001 µM.
For `COCC(OCc1cscn1)c1ccc(C(=O)NC2(c3cc(-c4cnn(C)c4)nc4ccccc34)CC2)c(C)c1` (single isomer, unassigned) [Example 325], the IC50 turned out to be 0.001 µM.
Turning to `COC[C@@H](OCc1cscn1)c1ccc(C(=O)N[C@H](C)c2cc(-c3cnn(C)c3)nc3ccccc23)c(C)c1` (single isomer, unassigned) [Example 332, 4-((R*)-2-methoxy-1-(thiazol-4-ylmethoxy)ethyl)-2-methyl-N-((R)-1-(2-(1-methyl-1H-pyrazol-4-yl)quinolin-4-yl)ethyl)benzamide], the IC50 was determined as 0.002 µM.
Turning to `COC[C@H](OCc1cscn1)c1ccc(C(=O)N[C@H](C)c2cc(-c3cnn(C)c3)nc3ccccc23)c(C)c1` (single isomer, unassigned) [Example 333, 4-((R*)-2-methoxy-1-(thiazol-4-ylmethoxy)ethyl)-2-methyl-N-((R)-1-(2-(1-methyl-1H-pyrazol-4-yl)quinolin-4-yl)ethyl)benzamide], the IC50 was < 0.001 µM.
The same measure for `COC[C@@H](OCc1cscn1)c1ccc(C(=O)NC2(c3cc(-c4cnn(C)c4)cc4ncccc34)CC2)c(C)c1` (single isomer, unassigned) [Example 334]: < 0.001 µM; for `COC[C@H](OCc1cscn1)c1ccc(C(=O)NC2(c3cc(-c4cnn(C)c4)cc4ncccc34)CC2)c(C)c1` (single isomer, unassigned) [Example 335]: < 0.001 µM; for `COC[C@@H](OCc1cscn1)c1ccc(C(=O)NC2(c3cc(-c4cc(C(=O)N(C)C)n[nH]4)nc4ccccc34)CC2)c(C)c1` (single isomer, unassigned) [Example 336]: < 0.001 µM.
Regarding `COC[C@H](OCc1cscn1)c1ccc(C(=O)NC2(c3cc(-c4cc(C(=O)N(C)C)n[nH]4)nc4ccccc34)CC2)c(C)c1` (single isomer, unassigned) [Example 337], the IC50 is < 0.001 µM.
Consider `COC[C@H](OCc1cocn1)c1ccc(C(=O)NC2(c3cc(-c4cnn(C)c4)nc4ccccc34)CC2)c(C)c1` (single isomer, unassigned) [Example 338], for which the IC50 worked out at 0.003 µM.
With `COC[C@@H](OCc1cocn1)c1ccc(C(=O)NC2(c3cc(-c4cnn(C)c4)nc4ccccc34)CC2)c(C)c1` (single isomer, unassigned) [Example 339], the IC50 was < 0.001 µM.
Under `COC[C@H](OCc1cocn1)c1ccc(C(=O)NC2(c3cc(-c4cnn(C)c4)cc4ncccc34)CC2)c(C)c1` (single isomer, unassigned) [Example 340] stands 0.002 µM; under `COC[C@@H](OCc1cocn1)c1ccc(C(=O)NC2(c3cc(-c4cnn(C)c4)cc4ncccc34)CC2)c(C)c1` (single isomer, unassigned) [Example 355], < 0.001 µM.
`COC[C@H](OCc1cocn1)c1ccc(C(=O)NC2(c3cc(-c4cnn(C)c4)cc4ncccc34)CC2)c(C)c1` (single isomer, unassigned) [Example 356]: the half-inhibitory concentration (IC50) came out at 0.002 µM.
Under `COC[C@H](OCc1cocn1)c1ccc(C(=O)NC2(c3cc(-c4cc(C(=O)N(C)C)n[nH]4)cc4ncccc34)CC2)c(C)c1` (single isomer, unassigned) [Example 359] stands < 0.001 µM; under `COC[C@@H](OCc1cocn1)c1ccc(C(=O)NC2(c3cc(-c4cc(C(=O)N(C)C)n[nH]4)cc4ncccc34)CC2)c(C)c1` (single isomer, unassigned) [Example 360], 0.001 µM; under `COC[C@H](OCc1cscn1)c1ccc(C(=O)NC2(c3cc(-c4cc(C(=O)N(C)C)n[nH]4)cc4ncccc34)CC2)c(C)c1` (single isomer, unassigned) [Example 361], < 0.001 µM.
The same measure for `COC[C@@H](OCc1cocn1)c1ccc(C(=O)NC2(c3cc(-c4cnn(C)c4)cc4nc(C)ccc34)CC2)c(C)c1` (single isomer, unassigned) [Example 365]: < 0.001 µM; for `Cc1ccccc1C(=O)NC(C)c1cc(CC2CCOCC2)nc2ccccc12` (stereo in doubt) [Example 152, 2-methyl-N-[(1R)-1-{2-[(oxan-4-yl)methyl]quinolin-4-yl}ethyl]benzamide]: 0.623 µM; for `CCCc1cc(C(C)NC(=O)c2ccccc2C)c2ccccc2n1` (stereo in doubt) [Example 153, 2-methyl-N-[(1R)-1-(2-propylquinolin-4-yl)ethyl]benzamide]: 0.311 µM.
On to `Cc1ccccc1C(=O)NC(C)c1cc(C2CC(F)(F)C2)nc2ccccc12` (stereo in doubt) [Example 154, N-{(1R)-1-[2-(3,3-difluorocyclobutyl)quinolin-4-yllethyl}-2-methylbenzamide], for which the IC50 came out at 0.988 µM.
